Activity calls are given as the source filed them.
Experiments:
[1] = target: E3 ubiquitin-protein ligase Mdm2 (Homo sapiens, UniProt Q00987); assay: MDM2-luc reporter signal enhancers, multi-concentration potency testing, MDM2 ubiquitin-protein ligase inhibitor program, whole-cell format, luminescence detection, 384-well microplate (AID 1394); assay type: functional;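 note: MDM2 E3 inhibitors raise luminescence so EC50 is for signal enhancement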
[2] = target: T1, Heat shock factor protein 1 (Mus musculus, UniProt P38532); assay: decrease of HSF1-responsive luciferase luminescence – cell-based, NIH3T3, dose retest, confirmation (AID 2382); assay type: functional;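 note: NIH3T3 fibroblasts with HSF1-driven luciferase reporter stressed by proteasome inhibitor MG132; luminescence from HSF1-driven luciferase expression after 8 hours of MG132 stress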
T1 sequence (P38532 whole entry): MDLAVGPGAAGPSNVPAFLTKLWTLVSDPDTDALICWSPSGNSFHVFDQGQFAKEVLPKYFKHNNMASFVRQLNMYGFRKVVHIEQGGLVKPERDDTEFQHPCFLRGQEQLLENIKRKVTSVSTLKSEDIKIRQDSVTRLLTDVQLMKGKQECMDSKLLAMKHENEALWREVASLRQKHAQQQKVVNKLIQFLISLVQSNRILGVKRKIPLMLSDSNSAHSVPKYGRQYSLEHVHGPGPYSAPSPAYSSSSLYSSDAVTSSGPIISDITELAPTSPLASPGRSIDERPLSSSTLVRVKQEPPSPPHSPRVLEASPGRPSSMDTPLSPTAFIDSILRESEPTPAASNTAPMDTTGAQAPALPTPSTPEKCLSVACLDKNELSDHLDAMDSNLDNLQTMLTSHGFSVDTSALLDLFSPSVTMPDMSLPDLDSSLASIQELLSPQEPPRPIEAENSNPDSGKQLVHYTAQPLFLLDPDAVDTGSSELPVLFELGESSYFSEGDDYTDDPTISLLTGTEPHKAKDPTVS

[3] = toxicity to human hepatoma HepG2 cells – cell-based, cherry-picked samples, cytotoxicity control, dose response (AID 1159577); assay type: functional
[4] = P. falciparum Dd2 growth inhibitors, dose response, SYBR Green, cherry-picked samples (AID 1159567); assay type: functional, cell-based
[5] = target: Neuropeptides B/W receptor type 1 (Homo sapiens, UniProt P48145); assay: Fluorescence-based dose response cell-based high throughput screening assay to identify antagonists of the G-protein coupled receptor 7 (GPR7). [Related pubchem assays: 1952 (Screening assay (GPR7 antagonists).), 1880 (Summary AID.)]; assay type: functional
[6] = target: Melanin-concentrating hormone receptor 1 (Homo sapiens, UniProt Q99705); assay: Fluorescence-based counterscreen for antagonists of the G-protein coupled receptor 7 (GPR7): cell-based high throughput dose response assay to identify antagonists of the melanin-concentrating hormone receptor 1 (MCHR1).; assay type: functional
[7] = viability loss in human Jurkat cells – cell-based, luminescence, cytotoxicity control for P. falciparum gametocyte viability project, dose response (AID 1117277); assay type: functional;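 note: potency reflects loss of cellular ATP meaning fewer viable cells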
[8] = viability inhibitors of stage V gametocytes – luminescence, dose response (AID 1117278); assay type: functional, cell-based;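 note: gametocytes exposed to compound for 24 hours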
[9] = target: G-protein coupled receptor 183 (Homo sapiens, UniProt P32249); assay: SAR confirmation of small molecule antagonists of the EBI2 receptor via a luminescent beta-arrestin assa.; assay type: functional
[10] = target: Solute carrier family 12 member 2/member 5 (Homo sapiens, UniProt P55011+Q9H2X9); assay: KCC2 and NKCC1 inhibition by rubidium flux, cell-based, NKCC1 counter-screen (AID 1734); assay type: functional, HEK293
[11] = target: T2, Corticotropin-releasing factor receptor 2/Corticotropin-releasing factor-binding protein (Homo sapiens, UniProt P24387+Q13324); assay: Dose Response confirmation of uHTS hits for small molecule antagonists of the CRF-binding protein and CRF-R2 receptor complex.; assay type: functional; conditions: read-out: IC50_Mean
T2 sequence (Q13324 whole entry): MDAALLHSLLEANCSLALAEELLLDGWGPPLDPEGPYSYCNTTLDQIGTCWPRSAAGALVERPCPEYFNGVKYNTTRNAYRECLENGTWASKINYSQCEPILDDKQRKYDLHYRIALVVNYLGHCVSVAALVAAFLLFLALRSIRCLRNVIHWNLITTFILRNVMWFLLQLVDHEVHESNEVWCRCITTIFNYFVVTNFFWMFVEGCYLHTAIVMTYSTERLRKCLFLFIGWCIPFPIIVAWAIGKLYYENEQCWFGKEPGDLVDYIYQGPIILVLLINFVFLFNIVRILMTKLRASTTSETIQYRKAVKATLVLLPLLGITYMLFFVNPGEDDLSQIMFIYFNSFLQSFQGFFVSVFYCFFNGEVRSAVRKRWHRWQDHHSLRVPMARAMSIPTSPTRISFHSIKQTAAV
T2 sequence (P24387 whole entry): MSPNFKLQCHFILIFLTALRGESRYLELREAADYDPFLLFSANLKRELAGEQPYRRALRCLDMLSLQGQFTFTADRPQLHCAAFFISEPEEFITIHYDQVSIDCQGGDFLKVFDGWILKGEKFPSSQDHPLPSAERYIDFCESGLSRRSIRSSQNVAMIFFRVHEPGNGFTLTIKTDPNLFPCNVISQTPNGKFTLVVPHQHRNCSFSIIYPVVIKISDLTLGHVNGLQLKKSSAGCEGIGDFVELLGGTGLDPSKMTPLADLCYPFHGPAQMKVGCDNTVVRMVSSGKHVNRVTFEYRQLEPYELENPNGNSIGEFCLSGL

[12] = target: T2, Corticotropin-releasing factor receptor 2/Corticotropin-releasing factor-binding protein; assay: activators of CRF receptor 2 with binding protein – uHTS hits, confirmation (AID 602473); assay type: functional; conditions: read-out: EC50_Mean
[13] = target: Glyceraldehyde-3-phosphate dehydrogenase (Homo sapiens, UniProt P04406)
[14] = target: T3, Bcl-2-related protein A1 (Mus musculus, UniProt Q07440); assay: Bfl-1 binding inhibitors, SAR follow-up, biochemical, fluorescence polarization (AID 1070)
T3 sequence (Q07440 whole entry): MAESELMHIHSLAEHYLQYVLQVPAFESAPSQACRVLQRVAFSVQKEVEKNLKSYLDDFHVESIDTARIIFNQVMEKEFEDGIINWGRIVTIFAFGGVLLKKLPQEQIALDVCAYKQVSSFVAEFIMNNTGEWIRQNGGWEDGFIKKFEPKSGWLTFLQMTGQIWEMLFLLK

[15] = target: T3, Bcl-2-related protein A1; assay: small-molecule antagonists of Bfl-1/BH3 interaction – biochemical, TR-FRET, mouse Bfl-1, confirmation (AID 621);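 note: TR-FRET binding of GST-Bfl-1 to FITC-labelled Bid peptide via terbium antibody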
[16] = system: Vero; assay: Vero cell viability after compound exposure – synthesized analogs, set II, cytotoxicity control for West Nile virus antiviral project, SAR follow-up (AID 2402); assay type: functional; conditions: Chlorocebus sabaeus
[17] = system: Vero; assay: Vero 76 cell viability after compound exposure – Vero 76 cells, synthesized analogs, cytotoxicity control for West Nile virus antiviral project, SAR follow-up (AID 2414); assay type: functional; conditions: Chlorocebus sabaeus
[18] = target: Prothrombin (Homo sapiens, UniProt P00734); assay: Thrombin 1536 HTS Dose Response Confirmation. [Related pubchem assays: 1046 (Thrombin 1536 HTS; hits were confirmed in this assay)]; assay type: functional
[19] = NIH-3T3 fibroblast cytotoxicity, dose response, cytotoxicity control, cell-based, fluorescence, Alamar Blue, secondary assay (AID 2327); assay type: functional;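 note: NIH-3T3 mouse fibroblasts cultured with fluconazole at 8 µg/mL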
[20] = HEK-293T cell viability reduction – luminescence, B-cell screen hits, cytotoxicity control for BCR NF-kB inhibitor project, dose response (AID 489021); assay type: functional, cell-based;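 note: HEK-293T cells carrying an NF-kB luciferase reporter; cells exposed to compound for about 14 hours before viability readout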
[21] = target: COUP transcription factor 2 (Homo sapiens, UniProt P24468); assay: Luminescence-based cell-based high throughput dose response assay to identify inhibitors of COUP-TFII (NR2F2).; assay type: functional;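 note: HEK293 cells transiently cotransfected with COUP-TFII expression vector and reporter; luciferase reporter luminescence driven by COUP-TFII from the pX2-168 reporter plasmid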
[22] = loss of viability in HepG2 cells – cell-based, CellTiter-Glo, cherry-picked, cytotoxicity control for Shn3 inhibitor project, dose response (AID 624134); assay type: functional
[23] = target: Galanin receptor type 2 (Homo sapiens, UniProt O43603); assay: Dose Response cell-based high-throughput screening assay to identify antagonists of galanin receptor 2 (GALR2). [Related pubchem assays: 828, 866 ]; assay type: functional
[24] = system: INS1; assay: INS-1E survival protection against cytokine death – cell-based, luminescence, retest, dose response (AID 449756); assay type: functional; conditions: Rattus norvegicus;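 note: cell death triggered by IL-1 beta plus TNF-alpha plus IFN-gamma mixture; protective hits raise ATP signal compared with cytokine alone wells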
[25] = reduction of Shn3 3'UTR-driven luciferase in osteoblasts – cell-based, Clone20 osteoblasts, firefly luciferase, cherry-picked, dose response (AID 624132); assay type: functional;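 note: firefly luciferase luminescence from reporter carrying the Shn3 3'UTR in osteoblasts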
[26] = non-specific 3'UTR reporter inhibition in Clone20-Shn3RL – cell-based, Renilla luciferase, cherry-picked, counter-screen for Shn3 inhibitor project, dose response (AID 624133); assay type: functional
[27] = fluconazole-exposed Candida albicans growth modulators – fluorescence, retest, confirmation (AID 2467); assay type: functional, cell-based

Sequence of Neuropeptides B/W receptor type 1 (P48145 whole entry): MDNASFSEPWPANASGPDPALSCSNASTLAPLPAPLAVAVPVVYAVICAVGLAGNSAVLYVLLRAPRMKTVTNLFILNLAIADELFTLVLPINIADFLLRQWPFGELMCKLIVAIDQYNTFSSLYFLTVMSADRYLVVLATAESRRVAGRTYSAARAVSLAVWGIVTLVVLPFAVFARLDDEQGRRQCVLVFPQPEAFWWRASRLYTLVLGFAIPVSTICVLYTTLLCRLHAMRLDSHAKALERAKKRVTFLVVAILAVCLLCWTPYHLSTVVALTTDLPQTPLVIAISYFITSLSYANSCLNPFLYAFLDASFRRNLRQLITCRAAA
Sequence of Galanin receptor type 2 (O43603 whole entry): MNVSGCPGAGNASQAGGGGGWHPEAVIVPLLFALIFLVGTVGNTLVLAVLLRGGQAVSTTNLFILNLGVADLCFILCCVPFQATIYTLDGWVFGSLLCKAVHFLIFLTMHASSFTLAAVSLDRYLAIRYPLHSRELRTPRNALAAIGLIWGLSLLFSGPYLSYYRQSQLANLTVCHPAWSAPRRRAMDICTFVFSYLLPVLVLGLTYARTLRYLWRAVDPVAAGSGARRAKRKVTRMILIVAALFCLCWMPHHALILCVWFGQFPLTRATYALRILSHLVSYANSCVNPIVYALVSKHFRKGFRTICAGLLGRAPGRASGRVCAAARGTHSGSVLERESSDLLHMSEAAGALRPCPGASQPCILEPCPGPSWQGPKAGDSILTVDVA
Sequence of E3 ubiquitin-protein ligase Mdm2 (Q00987 whole entry): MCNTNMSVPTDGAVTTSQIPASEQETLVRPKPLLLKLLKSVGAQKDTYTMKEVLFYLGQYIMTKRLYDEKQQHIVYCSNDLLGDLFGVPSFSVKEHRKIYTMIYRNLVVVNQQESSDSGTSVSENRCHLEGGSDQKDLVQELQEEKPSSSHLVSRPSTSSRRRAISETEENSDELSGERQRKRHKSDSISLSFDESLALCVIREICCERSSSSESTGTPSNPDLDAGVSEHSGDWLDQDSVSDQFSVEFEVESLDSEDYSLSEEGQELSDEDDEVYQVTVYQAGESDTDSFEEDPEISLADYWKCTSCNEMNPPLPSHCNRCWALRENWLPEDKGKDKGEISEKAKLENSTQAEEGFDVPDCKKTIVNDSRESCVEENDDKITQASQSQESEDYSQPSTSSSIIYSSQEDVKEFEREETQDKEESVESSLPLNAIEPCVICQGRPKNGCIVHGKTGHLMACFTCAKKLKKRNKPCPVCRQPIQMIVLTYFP
Sequence of COUP transcription factor 2 (P24468 whole entry): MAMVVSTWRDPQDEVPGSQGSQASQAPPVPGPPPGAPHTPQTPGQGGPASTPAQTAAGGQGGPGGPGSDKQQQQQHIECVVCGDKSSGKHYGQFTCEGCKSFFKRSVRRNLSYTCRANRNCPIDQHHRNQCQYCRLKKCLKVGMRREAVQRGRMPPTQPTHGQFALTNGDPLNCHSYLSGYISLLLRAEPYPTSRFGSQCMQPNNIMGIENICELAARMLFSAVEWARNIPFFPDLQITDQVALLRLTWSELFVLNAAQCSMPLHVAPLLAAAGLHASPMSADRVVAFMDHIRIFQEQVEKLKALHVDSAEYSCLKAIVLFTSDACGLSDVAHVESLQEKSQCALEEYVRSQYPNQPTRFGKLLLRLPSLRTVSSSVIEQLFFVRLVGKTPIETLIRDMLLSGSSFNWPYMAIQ
Sequence of Melanin-concentrating hormone receptor 1 (Q99705 whole entry): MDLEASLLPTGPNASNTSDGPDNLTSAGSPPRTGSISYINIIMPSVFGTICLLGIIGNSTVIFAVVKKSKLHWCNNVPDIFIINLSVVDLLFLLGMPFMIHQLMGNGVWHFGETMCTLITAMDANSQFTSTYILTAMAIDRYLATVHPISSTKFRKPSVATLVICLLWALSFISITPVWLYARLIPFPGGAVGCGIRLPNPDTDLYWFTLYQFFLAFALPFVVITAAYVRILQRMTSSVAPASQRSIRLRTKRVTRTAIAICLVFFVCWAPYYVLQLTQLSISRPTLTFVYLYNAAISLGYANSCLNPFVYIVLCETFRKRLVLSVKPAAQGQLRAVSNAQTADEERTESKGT
Sequence of Glyceraldehyde-3-phosphate dehydrogenase (P04406 whole entry): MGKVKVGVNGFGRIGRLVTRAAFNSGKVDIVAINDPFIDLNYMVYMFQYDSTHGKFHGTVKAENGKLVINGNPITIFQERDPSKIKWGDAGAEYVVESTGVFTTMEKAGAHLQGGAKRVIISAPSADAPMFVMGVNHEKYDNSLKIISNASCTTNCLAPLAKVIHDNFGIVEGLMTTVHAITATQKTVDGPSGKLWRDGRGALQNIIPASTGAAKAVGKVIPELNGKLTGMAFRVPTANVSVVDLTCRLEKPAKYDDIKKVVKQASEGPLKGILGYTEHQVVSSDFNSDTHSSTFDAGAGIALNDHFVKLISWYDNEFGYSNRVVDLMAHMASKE
Sequence of G-protein coupled receptor 183 (P32249 whole entry): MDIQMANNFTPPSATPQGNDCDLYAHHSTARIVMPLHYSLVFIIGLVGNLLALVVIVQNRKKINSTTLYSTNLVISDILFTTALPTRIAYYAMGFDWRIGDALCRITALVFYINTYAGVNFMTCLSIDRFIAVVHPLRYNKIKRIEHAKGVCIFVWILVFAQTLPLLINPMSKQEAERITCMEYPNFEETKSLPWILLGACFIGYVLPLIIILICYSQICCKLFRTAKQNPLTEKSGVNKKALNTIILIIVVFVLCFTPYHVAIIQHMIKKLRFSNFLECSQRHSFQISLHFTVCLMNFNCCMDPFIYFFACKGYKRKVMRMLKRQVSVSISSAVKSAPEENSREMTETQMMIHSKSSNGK

**Q.** Which EC50 [1] does the source give for `CCOC(=O)/C=C/C(=O)Nc1ccccc1-c1ccccc1NC(=O)/C=C/C(=O)OCC` here?
**A.** 4.34 µM (active)

**Q.** And the EC50 [2]?
**A.** 14.4 µM (active)

**Q.** What does the source list for `COc1ccccc1NC(=O)N1CCCCN2[C@@H](CO)[C@@H](c3ccc(C#CC4CC4)cc3)[C@@H]2C1`?
**A.** AC50 [3]: 9.69 µM (active); AC50 [4]: 1.03 µM (active)

**Q.** Which IC50 [5] does the source give for `OC1(c2ccc(F)cc2)CC2CCC(C1)N2Cc1nnnn1C1CCCCC1` (configuration not stated) here?
**A.** 28.3 µM (not active)

**Q.** And the IC50 [6]?
**A.** 24 µM (not active)

**Q.** Which IC50 [7] does the source give for `Cc1cc(S(=O)(=O)N(Cc2ccccc2F)C2CC2)ccc1-n1cnnn1` here?
**A.** > 83.2 µM (inactive)

**Q.** What about the IC50 [8] of the same molecule?
**A.** > 109 µM (inactive)

**Q.** Which IC50 [9] does the source give for `Cc1cc(CN2CCN(C(=O)/C=C/c3ccc(Br)cc3)CC2)ccc1F` here?
**A.** 0.0015 µM (active)

**Q.** Which IC50 [10] does the source give for `O=C(NCCOc1ccccc1F)c1ccccc1SCc1ccc(F)cc1` here?
**A.** 2.2 µM (active)

**Q.** What about the IC50 [11] of the same molecule?
**A.** > 47.1 µM (inactive)

**Q.** What about the EC50 [12] of the same molecule?
**A.** > 53 µM (inactive)

**Q.** For `O=C1C(Cl)=C(Cl)C(=O)N1c1cc(Cl)cc(Cl)c1`, which IC50 [13] is on record?
**A.** > 100 µM (not active)

**Q.** And the IC50 [14]?
**A.** 1.42 µM (active)

**Q.** What about the IC50 [15] of the same molecule?
**A.** 2.07 µM (active)

**Q.** Which results are given for `COc1cccc(-n2c(SCC(=O)Nc3ccc4c(c3)CCC4)nc3ccccc3c2=O)c1`?
**A.** CC50 [16]: > 100 µM (active); CC50 [17]: > 66.6 µM (active); IC50 [18]: > 50 µM (not active)

**Q.** With `Cc1ccc(S(=O)(=O)CC2CSc3nc4ccccc4n32)cc1` (configuration not stated) as the molecule, how does the EC50 [19] read?
**A.** > 160 µM (inactive)

**Q.** And the IC50 [20]?
**A.** > 80 µM (inactive)

**Q.** And the IC50 [21]?
**A.** 4.21 µM (active)

**Q.** What about the AC50 [22] of the same molecule?
**A.** 0.592 µM (active)

**Q.** And the IC50 [23]?
**A.** > 42 µM (not active)

**Q.** What about the AC50 [24] of the same molecule?
**A.** 3.55 µM (active)

**Q.** What about the AC50 [25] of the same molecule?
**A.** 0.347 µM (active)

**Q.** What about the AC50 [26] of the same molecule?
**A.** 24.4 µM (active)

**Q.** What about the EC50 [27] of the same molecule?
**A.** 1.15 µM (active)
